# Data: patent US20080058309A1, “Novel Compounds 171” (ASTRAZENECA AB, priority 2006, published 2008)
# Structures can show the parent of a compound that is named as a salt.
# Molecular target: T1, P2X7 receptor (Homo sapiens, UniProt Q99572)
# T1 construct: 200 μl of a suspension of THP-1 cells; endogenous in cells; host or cells: THP-1 cells
# T1 sequence (Q99572 1-595): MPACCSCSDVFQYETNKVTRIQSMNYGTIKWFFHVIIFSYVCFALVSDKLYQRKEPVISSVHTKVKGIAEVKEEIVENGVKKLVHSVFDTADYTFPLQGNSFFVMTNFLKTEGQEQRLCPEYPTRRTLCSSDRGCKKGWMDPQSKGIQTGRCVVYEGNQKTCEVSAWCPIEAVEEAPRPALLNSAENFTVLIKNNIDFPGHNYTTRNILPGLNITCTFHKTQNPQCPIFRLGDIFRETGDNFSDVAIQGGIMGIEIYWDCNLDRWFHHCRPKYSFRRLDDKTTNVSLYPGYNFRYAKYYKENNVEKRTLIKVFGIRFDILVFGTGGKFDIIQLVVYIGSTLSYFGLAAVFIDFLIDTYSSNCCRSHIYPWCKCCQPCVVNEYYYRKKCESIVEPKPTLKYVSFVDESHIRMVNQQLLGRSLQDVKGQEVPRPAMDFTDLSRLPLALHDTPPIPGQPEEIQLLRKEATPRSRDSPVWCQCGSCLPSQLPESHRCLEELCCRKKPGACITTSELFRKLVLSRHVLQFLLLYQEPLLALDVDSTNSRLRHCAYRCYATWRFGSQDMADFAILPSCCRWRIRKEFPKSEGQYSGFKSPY
# Assay: P2X7 receptor antagonist test: bbATP-induced ethidium bromide fluorescence in THP-1 cells
# Type: cell-based
# Conditions: negative logarithm of concentration reducing bbATP agonist activity by 50%, 10^-5M bbATP, 37° C. one hour
# Excerpt: Certain compounds such as benzoylbenzoyl adenosine triphosphate (bbATP) are known to be agonists of the P2X7 receptor, effecting the formation of pores in the plasma membrane (Drug Development Research (1996), 37(3), p. 126). Consequently, when the receptor is activated using bbATP in the presence of ethidium bromide (a fluorescent DNA probe), an increase in the fluorescence of intracellular DNA-bound ethidium bromide is observed. The increase in fluorescence can be used as a measure of P2X7 receptor activation and therefore to quantify the effect of a compound on the P2X7 receptor.
# In this manner, each of the title compounds of the Examples was tested for antagonist activity at the P2X7 receptor. Thus, the test was performed in 96-well flat bottomed microtitre plates, the wells being filled with 250 μl of test solution comprising 200 μl of a suspension of THP-1 cells (2.5×10^6 cells/ml) containing 10^−4M ethidium bromide, 25 μl of a high potassium buffer solution containing 10^−5M bbATP, and 25 μl of the high potassium buffer solution containing concentrations of test compound typically from 30 μM-0.001 μM. The plate was covered with a plastics sheet and incubated at 37° C. for one hour. The plate was then read in a Perkin-Elmer fluorescent plate reader, excitation 520 nm, emission 595 nm, slit widths: Ex 15 nm, Em 20 nm. […]
row,Compound,IC50
1,"O=C(CSc1ccccc1)Nc1c(Cl)ccc2nc(N3CC[C@@H](O)C3)ccc12 [Example 6, N-[6-Chloro-2-[(3R)-3-hydroxy-1-pyrrolidinyl]-5-quinolinyl]-2-(phenylthio)-acetamide]",398 nM
2,"N#Cc1cccc(NCC(=O)Nc2c(Cl)ccc3nc(N4CC[C@@H](O)C4)ccc23)c1 [Example 7, N-[6-Chloro-2-[(3R)-3-hydroxy-1-pyrrolidinyl]-5-quinolinyl]-2-[(3-cyanophenyl)amino]-acetamide]",79.4 nM

# Test system: not given
# Assay: not given
# Conditions: not given
row,Compound,melting point
1,O=C(CNc1ccccc1)Nc1c(Cl)ccc2nc(N3CC[C@@H](O)C3)ccc12,230 to 232 °C
2,O=C(CNc1ccc(F)cc1)Nc1c(Cl)ccc2nc(N3CC[C@@H](O)C3)ccc12,242 to 246 °C
3,O=C(CNc1ccc(F)c(F)c1)Nc1c(Cl)ccc2nc(N3CC[C@@H](O)C3)ccc12,238 to 240 °C
4,CC(O)C(O)c1ccc2c(NC(=O)CNc3ccc(F)cc3)c(Cl)ccc2n1 (stereo not shown),135 to 138 °C
5,O=C(CNc1ccccc1Cl)Nc1c(Cl)ccc2nc(N3CC[C@@H](O)C3)ccc12,215 to 219 °C
6,O=C(COc1ccccc1)Nc1c(Cl)ccc2nc(N3CC[C@@H](O)C3)ccc12,233 to 235 °C
7,N#Cc1ccc(NCC(=O)Nc2c(Cl)ccc3nc(N4CC[C@@H](O)C4)ccc23)cc1,230 to 233 °C
8,O=C(CNc1cccc(F)c1)Nc1c(Cl)ccc2nc(N3CC[C@@H](O)C3)ccc12,218 to 220 °C
9,O=C(CNc1cccc(Cl)c1)Nc1c(Cl)ccc2nc(N3CC[C@@H](O)C3)ccc12 (as salt: hydrochloride),180 °C (dec.)
10,O=C(CNc1ccc(Cl)cc1)Nc1c(Cl)ccc2nc(N3CC[C@@H](O)C3)ccc12 (as salt: hydrochloride),175 °C (dec.)
11,"O=C(CSc1ccccc1)Nc1c(Cl)ccc2nc(N3CC[C@@H](O)C3)ccc12 [Example 6, N-[6-Chloro-2-[(3R)-3-hydroxy-1-pyrrolidinyl]-5-quinolinyl]-2-(phenylthio)-acetamide]",246 to 249 °C
